# Data from ChEMBL document CHEMBL4725311, “Discovery of potent, orally bioavailable in vivo efficacious antagonists of the TLR7/8 pathway” (Bioorg Med Chem Lett, 2020).
# Columns and labels:
# Toll-like receptor 9 [1] = target: T1, Toll-like receptor 9 (Mus musculus, UniProt Q9EQU3); experiment: Antagonist activity at TLR9 in mouse splenocytes assessed as inhibition of CpG1585-induced IL6 production; assay type: cell-based, Splenocyte
# T1 sequence (Q9EQU3 whole entry): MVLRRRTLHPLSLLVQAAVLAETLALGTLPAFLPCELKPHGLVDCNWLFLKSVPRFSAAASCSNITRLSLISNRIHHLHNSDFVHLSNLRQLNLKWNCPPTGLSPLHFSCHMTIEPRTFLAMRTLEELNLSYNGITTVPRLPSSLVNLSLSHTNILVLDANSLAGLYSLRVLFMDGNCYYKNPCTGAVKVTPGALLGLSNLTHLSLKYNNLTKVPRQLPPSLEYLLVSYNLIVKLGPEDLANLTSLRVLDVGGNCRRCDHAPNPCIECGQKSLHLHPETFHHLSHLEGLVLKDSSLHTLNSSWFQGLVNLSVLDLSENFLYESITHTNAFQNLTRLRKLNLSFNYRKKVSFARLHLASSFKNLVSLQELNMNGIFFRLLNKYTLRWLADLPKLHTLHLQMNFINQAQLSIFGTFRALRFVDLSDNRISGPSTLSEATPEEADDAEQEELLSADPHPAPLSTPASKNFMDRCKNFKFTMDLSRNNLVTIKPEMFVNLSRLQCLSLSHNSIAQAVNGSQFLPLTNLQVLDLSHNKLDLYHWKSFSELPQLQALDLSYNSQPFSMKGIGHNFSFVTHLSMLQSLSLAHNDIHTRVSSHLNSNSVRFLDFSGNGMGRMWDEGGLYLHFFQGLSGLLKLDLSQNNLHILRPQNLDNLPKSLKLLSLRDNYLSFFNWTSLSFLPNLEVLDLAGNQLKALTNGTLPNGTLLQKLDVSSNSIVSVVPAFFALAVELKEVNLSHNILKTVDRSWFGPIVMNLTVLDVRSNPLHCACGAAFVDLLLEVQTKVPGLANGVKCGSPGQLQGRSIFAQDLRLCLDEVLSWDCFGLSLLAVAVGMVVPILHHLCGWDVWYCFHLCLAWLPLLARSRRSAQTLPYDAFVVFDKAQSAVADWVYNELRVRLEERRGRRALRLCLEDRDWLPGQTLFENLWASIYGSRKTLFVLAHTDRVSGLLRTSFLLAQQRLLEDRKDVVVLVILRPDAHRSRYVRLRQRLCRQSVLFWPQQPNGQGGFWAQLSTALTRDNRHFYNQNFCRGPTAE
# Toll-like receptor 7 = target: T2, Toll-like receptor 7 (Mus musculus, UniProt P58681); experiment: Antagonist activity at TLR7 in mouse splenocytes assessed as inhibition of ssRNA40-induced IL6 production; assay type: cell-based, Splenocyte
# T2 sequence (P58681 whole entry): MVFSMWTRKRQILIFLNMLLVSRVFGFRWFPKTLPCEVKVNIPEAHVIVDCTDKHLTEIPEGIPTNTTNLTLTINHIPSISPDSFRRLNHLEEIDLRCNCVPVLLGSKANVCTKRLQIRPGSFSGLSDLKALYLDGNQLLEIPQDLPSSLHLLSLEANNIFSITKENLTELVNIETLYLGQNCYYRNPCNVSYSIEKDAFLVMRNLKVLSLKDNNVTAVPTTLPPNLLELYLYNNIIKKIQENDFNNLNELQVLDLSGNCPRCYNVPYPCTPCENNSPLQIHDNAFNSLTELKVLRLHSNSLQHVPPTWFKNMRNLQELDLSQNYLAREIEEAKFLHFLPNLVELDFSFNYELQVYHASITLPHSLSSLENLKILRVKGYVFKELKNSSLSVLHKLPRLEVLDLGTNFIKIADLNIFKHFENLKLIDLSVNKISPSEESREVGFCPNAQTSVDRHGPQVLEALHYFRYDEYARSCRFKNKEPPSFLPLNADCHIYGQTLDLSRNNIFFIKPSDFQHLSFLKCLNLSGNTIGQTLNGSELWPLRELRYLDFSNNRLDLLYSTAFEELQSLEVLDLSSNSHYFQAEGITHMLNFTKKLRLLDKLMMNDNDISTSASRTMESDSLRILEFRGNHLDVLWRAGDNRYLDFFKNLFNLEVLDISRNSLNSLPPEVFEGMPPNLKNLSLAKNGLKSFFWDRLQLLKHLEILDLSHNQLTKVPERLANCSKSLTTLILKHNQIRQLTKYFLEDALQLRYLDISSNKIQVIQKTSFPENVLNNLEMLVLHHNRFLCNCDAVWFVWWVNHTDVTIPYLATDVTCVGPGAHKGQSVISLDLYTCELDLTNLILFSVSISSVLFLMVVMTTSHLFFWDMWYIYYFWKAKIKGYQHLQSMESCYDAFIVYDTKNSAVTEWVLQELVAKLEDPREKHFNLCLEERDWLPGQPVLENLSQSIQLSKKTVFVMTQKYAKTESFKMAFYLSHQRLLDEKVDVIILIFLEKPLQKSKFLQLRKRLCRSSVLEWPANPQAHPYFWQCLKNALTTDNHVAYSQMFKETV
# Toll-like receptor 9 [2] = target: T3, Toll-like receptor 9 (Homo sapiens, UniProt Q9NR96); experiment: Antagonist activity at TLR9 in human PBMC assessed as inhibition of ODN2216-induced IFNalpha production; assay type: tissue-based
# T3 sequence (Q9NR96 whole entry): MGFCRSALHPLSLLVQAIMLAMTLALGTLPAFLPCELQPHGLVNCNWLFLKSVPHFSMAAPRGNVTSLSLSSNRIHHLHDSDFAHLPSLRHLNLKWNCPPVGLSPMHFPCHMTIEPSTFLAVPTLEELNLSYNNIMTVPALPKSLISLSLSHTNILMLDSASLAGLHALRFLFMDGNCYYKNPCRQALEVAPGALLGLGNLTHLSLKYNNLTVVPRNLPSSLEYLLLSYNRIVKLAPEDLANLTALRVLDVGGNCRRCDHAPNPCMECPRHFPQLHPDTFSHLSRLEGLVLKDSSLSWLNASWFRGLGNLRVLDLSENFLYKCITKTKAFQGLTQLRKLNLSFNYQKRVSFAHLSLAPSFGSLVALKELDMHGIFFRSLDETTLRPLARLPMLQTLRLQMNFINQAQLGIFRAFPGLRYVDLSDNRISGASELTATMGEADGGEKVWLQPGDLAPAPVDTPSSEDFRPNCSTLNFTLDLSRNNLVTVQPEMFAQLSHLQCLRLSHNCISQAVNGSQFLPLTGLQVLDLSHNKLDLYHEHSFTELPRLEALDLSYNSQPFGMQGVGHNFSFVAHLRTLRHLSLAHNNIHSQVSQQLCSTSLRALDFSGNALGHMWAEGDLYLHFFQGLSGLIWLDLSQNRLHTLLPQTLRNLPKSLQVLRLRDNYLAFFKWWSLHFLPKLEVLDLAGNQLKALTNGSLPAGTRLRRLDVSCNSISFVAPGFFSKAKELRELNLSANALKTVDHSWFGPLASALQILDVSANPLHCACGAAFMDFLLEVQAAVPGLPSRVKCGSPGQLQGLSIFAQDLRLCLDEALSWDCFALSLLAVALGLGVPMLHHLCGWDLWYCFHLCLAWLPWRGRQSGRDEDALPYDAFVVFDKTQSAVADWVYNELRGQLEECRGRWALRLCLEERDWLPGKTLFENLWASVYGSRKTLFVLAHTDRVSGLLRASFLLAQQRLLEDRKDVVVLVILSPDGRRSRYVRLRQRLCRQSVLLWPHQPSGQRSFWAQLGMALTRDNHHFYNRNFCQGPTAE
# [3] = Cmax in BALB/c mouse at 20 mg/kg, po; assay type: ADME, organism-based; set-up: route oral, dose 20 mg/kg; settings: in vivo
# [4] = Terminal half life in BALB/c mouse at 5 mg/kg, iv; assay type: ADME, organism-based; settings: in vivo, read-out: beta t1/2 (converted)
# [5] = Oral bioavailability in BALB/c mouse at 20 mg/kg; assay type: ADME, organism-based; settings: in vivo
# [6] = Volume of distribution at steady state in BALB/c mouse at 5 mg/kg, iv; assay type: ADME, organism-based; settings: in vivo, read-out: Vdss
# [7] = Clearance in BALB/c mouse at 5 mg/kg, iv; assay type: ADME, organism-based; settings: in vivo
# [8] = AUC in BALB/c mouse at 20 mg/kg, po; assay type: ADME, organism-based; set-up: dose 20 mg/kg; settings: in vivo
# [9] = Drug uptake in 129Sv mouse at 5 mg/kg, po measured after 2 hrs; assay type: ADME, organism-based; settings: in vivo, read-out: Drug uptake
# [10] = Drug uptake in 129Sv mouse at 30 mg/kg, ip measured after 2 hrs; assay type: ADME, organism-based; settings: in vivo, read-out: Drug uptake
SMILES,IC50 (Toll-like receptor 9 [1]),IC50 (Toll-like receptor 7),IC50 (Toll-like receptor 9 [2]),Cmax [3],half-life [4],bioavailability [5],Vd [6],clearance [7],AUC [8],concentration at 2 h [9],concentration at 2 h [10]
Cn1nc(-c2ccc(OCC3CCNCC3)c(F)c2)c2cnc(N)nc21,2000 nM,220 nM,3.4 µM,–,–,–,–,–,–,–,–
Cn1nc(-c2ccc(OCC34CCC(N)(CC3)CC4)c(F)c2)c2cnc(N)nc21,840 nM,38 nM,2.7 µM,506 nM,246 min,36%,15 L/kg,98 mL/min/kg,3.05 µM·h,–,–
Cc1cc(-c2cnc(OCC34CCC(N)(CC3)CC4)c(C)c2)c2cnn(C)c2n1,–,–,–,1400 nM,294 min,150%,13.8 L/kg,44 mL/min/kg,28.9 µM·h,–,–
Cl.Cn1nc(-c2ccc(OCC34CCC(N)(CC3)CC4)c(F)c2)c2cnc(N)nc21,–,–,–,–,–,–,–,–,–,300 nM,–
Cc1cc(-c2nn(C)c3nc(N)ncc23)cnc1OCC12CCC(N)(CC1)CC2,–,–,3.3 µM,354 nM,246 min,34%,15 L/kg,96 mL/min/kg,2.98 µM·h,–,–
Cn1nc(-c2ccc(OCCCC3CCNCC3)c(F)c2)c2cnc(N)nc21,1300 nM,97 nM,2.3 µM,–,354 min,0%,29 L/kg,165 mL/min/kg,–,–,1500 nM
Cn1nc(-c2ccc(OCC3C[C@H]4CC[C@@H](C3)N4)c(F)c2)c2cnc(N)nc21 (stereo not given in full),1200 nM,120 nM,1.2 µM,–,–,–,–,–,–,–,–
Cn1nc(-c2ccc(OCC34CCC(O)(CC3)CC4)c(F)c2)c2cnc(N)nc21,2800 nM,1200 nM,5.3 µM,–,–,–,–,–,–,–,–
